Data reported in patent publication US20230150974A1 (Foghorn Therapeutics Inc., priority 2020, published 2023).

Experiments:
HiBiT-BRM = biological target: T1, HiBiT-BRM (Homo sapiens, UniProt P51531); experiment: HiBiT-BRM cell-based degradation assay (Nano-Glo HiBiT Lytic Detection); conditions: HeLa cells expressing HiBiT-BRM, 24 h; for DC50: read-out: BRM HiBit Degradation IC50
T1 construct: expressed in transfected cells
Procedure, shortened: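 HeLa cells stably expressing HiBiT-tagged BRM were treated for 24 h, then lysed with LgBiT-containing Nano-Glo reagent and luminescence read. % degradation scaled between DMSO (high control) and 2 μM reference BRM/BRG1 degrader (low control).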

HiBit-BRG1 = biological target: T2, HiBit-BRG1 (Homo sapiens, UniProt P51532); experiment: HiBit-BRG1 cell-based degradation assay (Nano-Glo HiBiT Lytic Detection); conditions: HeLa cells expressing HiBit-BRG1 and LgBit, 24 h; for DC50: read-out: BRG1 HiBit Degradation IC50; for Dmax: read-out: BRG1 HiBit Degradation Maximum (%)
T2 construct: expressed in transfected cells
T2 sequence (P51532 whole entry): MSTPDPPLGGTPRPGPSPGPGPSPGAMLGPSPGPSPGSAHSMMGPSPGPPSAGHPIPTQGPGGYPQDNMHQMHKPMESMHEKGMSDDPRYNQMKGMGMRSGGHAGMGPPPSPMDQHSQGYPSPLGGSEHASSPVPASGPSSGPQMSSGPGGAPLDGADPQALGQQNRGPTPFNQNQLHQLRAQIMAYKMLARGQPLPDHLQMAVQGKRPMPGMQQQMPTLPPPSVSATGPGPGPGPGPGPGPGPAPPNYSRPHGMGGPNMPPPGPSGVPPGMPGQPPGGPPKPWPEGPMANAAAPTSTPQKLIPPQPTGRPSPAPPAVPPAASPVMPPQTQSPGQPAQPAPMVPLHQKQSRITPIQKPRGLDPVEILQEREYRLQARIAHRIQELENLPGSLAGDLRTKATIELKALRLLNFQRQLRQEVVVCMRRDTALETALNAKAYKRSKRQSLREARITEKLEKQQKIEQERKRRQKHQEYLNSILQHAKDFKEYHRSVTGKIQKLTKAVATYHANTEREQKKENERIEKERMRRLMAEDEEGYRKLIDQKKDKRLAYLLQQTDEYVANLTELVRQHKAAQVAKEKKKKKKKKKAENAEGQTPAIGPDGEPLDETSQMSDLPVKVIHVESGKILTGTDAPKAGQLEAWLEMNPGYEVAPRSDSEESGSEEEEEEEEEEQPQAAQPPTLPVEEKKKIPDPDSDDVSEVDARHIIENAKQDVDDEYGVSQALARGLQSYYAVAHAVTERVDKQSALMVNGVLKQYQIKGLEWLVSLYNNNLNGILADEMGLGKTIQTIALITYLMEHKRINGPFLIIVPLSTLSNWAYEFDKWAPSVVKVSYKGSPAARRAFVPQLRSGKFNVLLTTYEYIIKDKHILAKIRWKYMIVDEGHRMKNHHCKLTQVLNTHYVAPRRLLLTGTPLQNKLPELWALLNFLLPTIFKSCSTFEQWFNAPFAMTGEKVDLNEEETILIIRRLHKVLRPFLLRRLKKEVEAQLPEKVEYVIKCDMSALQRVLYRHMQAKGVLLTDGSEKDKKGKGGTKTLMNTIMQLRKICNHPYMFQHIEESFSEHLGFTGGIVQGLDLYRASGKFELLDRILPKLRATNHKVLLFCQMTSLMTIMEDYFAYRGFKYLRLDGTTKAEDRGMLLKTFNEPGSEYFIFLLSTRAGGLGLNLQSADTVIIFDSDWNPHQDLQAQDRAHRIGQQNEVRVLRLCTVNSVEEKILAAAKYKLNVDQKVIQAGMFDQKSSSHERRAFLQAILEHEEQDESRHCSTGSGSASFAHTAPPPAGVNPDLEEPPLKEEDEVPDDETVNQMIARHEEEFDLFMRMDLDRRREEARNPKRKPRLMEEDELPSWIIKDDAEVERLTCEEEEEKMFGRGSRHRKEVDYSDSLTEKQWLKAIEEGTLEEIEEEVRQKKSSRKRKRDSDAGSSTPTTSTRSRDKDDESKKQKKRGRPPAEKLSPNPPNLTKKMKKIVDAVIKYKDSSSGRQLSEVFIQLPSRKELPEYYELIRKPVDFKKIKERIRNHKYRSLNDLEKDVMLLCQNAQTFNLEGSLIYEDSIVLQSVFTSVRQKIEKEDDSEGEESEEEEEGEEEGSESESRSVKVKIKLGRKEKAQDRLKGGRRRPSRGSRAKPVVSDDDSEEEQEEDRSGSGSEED
Procedure, shortened: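 Stable HeLa line co-expressing HiBit-BRG1 and LgBit, 5000 cells/well, treated 24 h in a tissue culture incubator. Lysed with Nano-Glo HiBiT lytic reagent, luminescence read. % degradation normalized to DMSO (high control) and 2 μM reference BRM/BRG1 degrader (low control).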

T1 sequence (P51531 whole entry): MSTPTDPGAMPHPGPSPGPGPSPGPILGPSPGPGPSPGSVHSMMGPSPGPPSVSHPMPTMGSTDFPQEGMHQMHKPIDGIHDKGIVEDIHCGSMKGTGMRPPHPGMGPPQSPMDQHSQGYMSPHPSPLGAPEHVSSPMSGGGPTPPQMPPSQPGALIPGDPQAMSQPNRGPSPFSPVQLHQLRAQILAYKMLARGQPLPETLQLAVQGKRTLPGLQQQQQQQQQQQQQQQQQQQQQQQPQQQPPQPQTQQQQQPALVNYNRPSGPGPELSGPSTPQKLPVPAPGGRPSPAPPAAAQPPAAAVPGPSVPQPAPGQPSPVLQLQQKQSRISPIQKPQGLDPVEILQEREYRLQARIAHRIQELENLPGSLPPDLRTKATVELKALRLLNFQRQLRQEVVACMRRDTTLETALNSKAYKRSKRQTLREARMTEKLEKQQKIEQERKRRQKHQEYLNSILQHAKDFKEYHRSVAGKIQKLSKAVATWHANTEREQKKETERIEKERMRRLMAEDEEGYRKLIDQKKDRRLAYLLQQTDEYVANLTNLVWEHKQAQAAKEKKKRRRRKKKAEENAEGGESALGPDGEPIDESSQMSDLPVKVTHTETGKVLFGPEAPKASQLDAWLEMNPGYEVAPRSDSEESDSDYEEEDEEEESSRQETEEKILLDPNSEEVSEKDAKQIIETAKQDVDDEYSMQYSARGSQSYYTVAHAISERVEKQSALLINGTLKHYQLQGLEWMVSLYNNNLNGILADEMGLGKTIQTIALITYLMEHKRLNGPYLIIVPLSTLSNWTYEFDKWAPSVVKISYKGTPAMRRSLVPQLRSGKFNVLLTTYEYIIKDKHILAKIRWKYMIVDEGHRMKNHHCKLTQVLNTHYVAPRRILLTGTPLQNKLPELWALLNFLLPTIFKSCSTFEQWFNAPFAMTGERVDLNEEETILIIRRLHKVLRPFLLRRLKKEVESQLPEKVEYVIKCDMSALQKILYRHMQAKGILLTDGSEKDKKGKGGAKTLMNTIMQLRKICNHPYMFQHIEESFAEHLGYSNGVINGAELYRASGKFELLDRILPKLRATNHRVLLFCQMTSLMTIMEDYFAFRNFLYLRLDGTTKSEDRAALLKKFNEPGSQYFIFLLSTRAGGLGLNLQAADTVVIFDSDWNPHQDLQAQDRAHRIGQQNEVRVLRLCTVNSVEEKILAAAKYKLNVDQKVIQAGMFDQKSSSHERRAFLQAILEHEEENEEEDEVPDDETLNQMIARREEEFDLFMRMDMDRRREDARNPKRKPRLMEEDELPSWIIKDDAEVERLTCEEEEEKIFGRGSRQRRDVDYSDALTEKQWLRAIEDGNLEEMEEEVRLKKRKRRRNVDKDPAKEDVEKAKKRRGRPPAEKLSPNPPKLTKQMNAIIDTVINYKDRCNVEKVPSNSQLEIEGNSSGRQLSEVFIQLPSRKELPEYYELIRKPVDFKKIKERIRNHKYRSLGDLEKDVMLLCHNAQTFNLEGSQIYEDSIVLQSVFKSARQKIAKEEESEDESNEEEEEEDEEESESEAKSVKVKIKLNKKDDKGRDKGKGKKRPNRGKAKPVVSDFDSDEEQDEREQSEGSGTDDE

DC50 (HiBiT-BRM) [nM]	DC50 (HiBit-BRG1) [nM]	Dmax (HiBit-BRG1) [%]	Structure (SMILES)	BRM HiBit Degradation Maximum (%) (HiBiT-BRM)
> 1000	> 1000	> 50	Nc1nnc(-c2ccccc2O)cc1N1CCN(CC(=O)NCCCCCNc2ccc3c(c2)C(=O)N(C2CCC(=O)NC2=O)C3=O)CC1 (centres unmarked) [Compound 87, 2-[4-[3-amino-6-(2-hydroxyphenyl)pyridazin-4-yl]piperazin-1-yl]-N-(5-[[2-(2,6-dioxopiperidin-3-yl)-1,3-dioxo-2,3-dihydro-1H-isoindol-5-yl]amino]pentyl)acetamide; formic acid]	B (“B” indicates maximum degradation ≥50%)
> 1000	> 1000	< 50	Nc1nnc(-c2ccccc2O)cc1N1CCN(CCNC(=O)CCCCCCCCCCNc2cccc3c2C(=O)N(C2CCC(=O)NC2=O)C3=O)CC1 (centres unmarked) [Compound 88, N-(2-[4-[3-amino-6-(2-hydroxyphenyl)pyridazin-4-yl]piperazin-1-yl]ethyl)-11-[[2-(2,6-dioxopiperidin-3-yl)-1,3-dioxoisoindol-4-yl]amino]undecanamide]	C (“C” indicates maximum degradation <50%)
> 1000	> 1000	< 50	Nc1nnc(-c2ccccc2O)cc1N1CCN(CCNC(=O)CCCCOc2cccc3c2C(=O)N(C2CCC(=O)NC2=O)C3=O)CC1 (centres unmarked) [Compound 89, N-(2-[4-[3-amino-6-(2-hydroxyphenyl)pyridazin-4-yl]piperazin-1-yl]ethyl)-5-[[2-(2,6-dioxopiperidin-3-yl)-1,3-dioxoisoindol-4-yl]oxy]pentanamide]	C (“C” indicates maximum degradation <50%)
> 1000	> 1000	< 50	Nc1nnc(-c2ccccc2O)cc1N1CCN(CCNC(=O)CCCCCCCOc2cccc3c2C(=O)N(C2CCC(=O)NC2=O)C3=O)CC1 (centres unmarked) [Compound 90, N-(2-[4-[3-amino-6-(2-hydroxyphenyl)pyridazin-4-yl]piperazin-1-yl]ethyl)-8-[[2-(2,6-dioxopiperidin-3-yl)-1,3-dioxo-2,3-dihydro-1H-isoindol-4-yl]oxy]octanamide]	C (“C” indicates maximum degradation <50%)
> 1000	> 1000	< 50	Nc1nnc(-c2ccccc2O)cc1N1CCN(CCNC(=O)CCOCCOCCNc2ccc3c(c2)C(=O)N(C2CCC(=O)NC2=O)C3=O)CC1 (centres unmarked) [Compound 91, N-(2-[4-[3-amino-6-(2-hydroxyphenyl)pyridazin-4-yl]piperazin-1-yl]ethyl)-3-[2-(2-[[2-(2,6-dioxopiperidin-3-yl)-1,3-dioxo-2,3-dihydro-1H-isoindol-5-yl]amino]ethoxy)ethoxy]propanamide]	C (“C” indicates maximum degradation <50%)
> 1000	> 1000	< 50	Nc1nnc(-c2ccccc2O)cc1N1CCN(CCNC(=O)CCCCCCCCNc2ccc3c(c2)C(=O)N(C2CCC(=O)NC2=O)C3=O)CC1 (centres unmarked) [Compound 92]	C (“C” indicates maximum degradation <50%)
> 1000	> 1000	< 50	Nc1nnc(-c2ccccc2O)cc1N1CCN(CCNC(=O)CCOCCOCCNc2cccc3c2C(=O)N(C2CCC(=O)NC2=O)C3=O)CC1 (centres unmarked) [Compound 93]	C (“C” indicates maximum degradation <50%)
> 1000	> 1000	< 50	Cc1ncsc1-c1ccc(CNC(=O)[C@@H]2C[C@@H](O)CN2C(=O)[C@@H](NC(=O)CCCCCCCNC(=O)CN2CCN(c3cc(-c4ccccc4O)nnc3N)CC2)C(C)(C)C)cc1 [Compound 94, (2S,4R)-1-((S)-2-(8-(2-(4-(3-amino-6-(2-hydroxyphenyl)pyridazin-4-yl)piperazin-1-yl)acetamido)octanamido)-3,3-dimethylbutanoyl)-4-hydroxy-N-(4-(4-methylthiazol-5-yl)benzyl)pyrrolidine-2-carboxamide]	A (“A” indicates maximum degradation ≥75%)
> 1000	> 1000	< 50	Nc1nnc(-c2ccccc2O)cc1N1CCN(CC(=O)NCCCCCCCCNc2cccc3c2C(=O)N(C2CCC(=O)NC2=O)C3=O)CC1 (centres unmarked) [Compound 95, 2-(4-(3-amino-6-(2-hydroxyphenyl)pyridazin-4-yl)piperazin-1-yl)-N-(8-((2-(2,6-dioxopiperidin-3-yl)-1,3-dioxoisoindolin-4-yl)amino)octyl)acetamide]	C (“C” indicates maximum degradation <50%)
> 1000	> 1000	< 50	CN(CCNC(=O)CN1CCN(c2cc(-c3ccccc3O)nnc2N)CC1)CCNc1cccc2c1C(=O)N(C1CCC(=O)NC1=O)C2=O (centres unmarked) [Compound 96, 2-(4-(3-amino-6-(2-hydroxyphenyl)pyridazin-4-yl)piperazin-1-yl)-N-(2-((2-((2-(2,6-dioxopiperidin-3-yl)-1,3-dioxoisoindolin-4-yl)amino)ethyl)(methyl)amino)ethyl)acetamide]	C (“C” indicates maximum degradation <50%)
> 1000	> 1000	< 50	Nc1nnc(-c2ccccc2O)cc1N1CCN(CCNC(=O)CCCCCCCCNc2cccc3c2C(=O)N(C2CCC(=O)NC2=O)C3=O)CC1 (centres unmarked) [Compound 97, N-(2-[4-[3-amino-6-(2-hydroxyphenyl)pyridazin-4-yl]piperazin-1-yl]ethyl)-9-[[2-(2,6-dioxopiperidin-3-yl)-1,3-dioxoisoindol-4-yl]amino]nonanamide]	C (“C” indicates maximum degradation <50%)
> 1000	> 1000	< 50	Nc1nnc(-c2ccccc2O)cc1N1CCN(CCNC(=O)CCCCCCCCCNc2cccc3c2C(=O)N(C2CCC(=O)NC2=O)C3=O)CC1 (centres unmarked) [Compound 98, N-(2-[4-[3-amino-6-(2-hydroxyphenyl)pyridazin-4-yl]piperazin-1-yl]ethyl)-10-[[2-(2,6-dioxopiperidin-3-yl)-1,3-dioxo-2,3-dihydro-1H-isoindol-4-yl]amino]decanamide]	C (“C” indicates maximum degradation <50%)
> 1000	> 1000	< 50	Nc1nnc(-c2ccccc2O)cc1N1CCN(CCNC(=O)CCCCCCCCCCNc2ccc3c(c2)C(=O)N(C2CCC(=O)NC2=O)C3=O)CC1 (centres unmarked) [Compound 99, N-(2-[4-[3-amino-6-(2-hydroxyphenyl)pyridazin-4-yl]piperazin-1-yl]ethyl)-11-[[2-(2,6-dioxopiperidin-3-yl)-1,3-dioxo-2,3-dihydro-1H-isoindol-5-yl]amino]undecanamide]	C (“C” indicates maximum degradation <50%)
> 1000	> 1000	< 50	Cc1ncsc1-c1ccc(CNC(=O)[C@@H]2C[C@@H](O)CN2C(=O)[C@@H](NC(=O)COCCOCCNC(=O)CN2CCN(c3cc(-c4ccccc4O)nnc3N)CC2)C(C)(C)C)cc1 [Compound 100, (2S,4R)-1-[(2S)-2-(2-[2-[2-(2-[4-[3-amino-6-(2-hydroxyphenyl)pyridazin-4-yl]piperazin-1-yl]acetamido)ethoxy]ethoxy]acetamido)-3,3-dimethylbutanoyl]-4-hydroxy-N-[[4-(4-methyl-1,3-thiazol-5-yl)phenyl]methyl]pyrrolidine-2-carboxamide]	C (“C” indicates maximum degradation <50%)
> 100	> 1000	< 50	Cc1ncsc1-c1ccc(CNC(=O)[C@@H]2C[C@@H](O)CN2C(=O)[C@@H](NC(=O)CCCCCCCCCNC(=O)CN2CCN(c3cc(-c4ccccc4O)nnc3N)CC2)C(C)(C)C)cc1 [Compound 102, (2S,4R)-1-[(2S)-2-[10-(2-[4-[3-amino-6-(2-hydroxyphenyl)pyridazin-4-yl]piperazin-1-yl]acetamido)decanamido]-3,3-dimethylbutanoyl]-4-hydroxy-N-[[4-(4-methyl-1,3-thiazol-5-yl)phenyl]methyl]pyrrolidine-2-carboxamide]	A (“A” indicates maximum degradation ≥75%)
> 1000	> 1000	< 50	Nc1nnc(-c2ccccc2O)cc1N1CCN(CC(=O)NCCCCNc2ccc3c(c2)C(=O)N(C2CCC(=O)NC2=O)C3=O)CC1 (centres unmarked) [Compound 103, 2-[4-[3-amino-6-(2-hydroxyphenyl)pyridazin-4-yl]piperazin-1-yl]-N-(4-[[2-(2,6-dioxopiperidin-3-yl)-1,3-dioxo-2,3-dihydro-1H-isoindol-5-yl]amino]butyl)acetamide]	C (“C” indicates maximum degradation <50%)
> 1000	> 1000	< 50	CN(CCNC(=O)COc1cccc2c1C(=O)N(C1CCC(=O)NC1=O)C2=O)CCNC(=O)CN1CCN(c2cc(-c3ccccc3O)nnc2N)CC1 (centres unmarked) [Compound 104, N-(2-[[2-(2-[4-[3-amino-6-(2-hydroxyphenyl)pyridazin-4-yl]piperazin-1-yl]acetamido)ethyl](methyl)amino]ethyl)-2-[[2-(2,6-dioxopiperidin-3-yl)-1,3-dioxo-2,3-dihydro-1H-isoindol-4-yl]oxy]acetamide]	C (“C” indicates maximum degradation <50%)
